Activity calls are given as the source filed them. No cut-off for these calls is given here.
Key:
[1] = target: T1, Protein cereblon/Dual specificity tyrosine-phosphorylation-regulated kinase 1B (Homo sapiens) (UniProt Q9Y463+Q96SW2); assay: PROTAC activity at CRBN/HibiT-tagged DYRK1B in Flp-In-T-REx-293 cells assessed as induction of degradation of DYRK1B by measuring maximum efficacy at 1 uM measured after 24 hrs by NanoBiT luciferase assay relative to control; format: cell-based
[2] = target: T2, Protein cereblon/Dual specificity tyrosine-phosphorylation-regulated kinase 1A (Homo sapiens, UniProt Q13627+Q96SW2); assay: Competitive binding affinity to CRBN/DYRK1A (unknown origin) assessed as dissociation constant; format: protein assay
[3] = target: T2, Protein cereblon/Dual specificity tyrosine-phosphorylation-regulated kinase 1A; assay: PROTAC activity at CRBN/HibiT-tagged DYRK1A in Flp-In-T-REx-293 cells assessed as induction of degradation of DYRK1A by measuring maximum efficacy at 1 uM measured after 24 hrs by NanoBiT luciferase assay relative to control; format: cell-based
[4] = target: Protein cereblon/Dual specificity tyrosine-phosphorylation-regulated kinase 1B (Homo sapiens, UniProt Q96SW2+Q9Y463); assay: Competitive binding affinity to CRBN/DYRK1B (unknown origin) assessed as dissociation constant; format: protein assay
[5] = target: von Hippel-Lindau disease tumor suppressor/Dual specificity tyrosine-phosphorylation-regulated kinase 1A (Homo sapiens) (UniProt Q13627+P40337); assay: PROTAC activity at VHL/HibiT-tagged DYRK1A in Flp-In-T-REx-293 cells assessed as induction of degradation of DYRK1A by measuring maximum efficacy at 0.3 uM measured after 24 hrs by NanoBiT luciferase assay relative to control; format: cell-based
[6] = target: von Hippel-Lindau disease tumor suppressor/Dual specificity tyrosine-phosphorylation-regulated kinase 1B (Homo sapiens, UniProt P40337+Q9Y463); assay: Competitive binding affinity to VHL/DYRK1B (unknown origin) assessed as dissociation constant; format: protein assay
[7] = target: von Hippel-Lindau disease tumor suppressor/Dual specificity tyrosine-phosphorylation-regulated kinase 1B (Homo sapiens) (UniProt Q9Y463+P40337); assay: PROTAC activity at VHL/HibiT-tagged DYRK1B in Flp-In-T-REx-293 cells assessed as induction of degradation of DYRK1B by measuring maximum efficacy at 0.3 uM measured after 24 hrs by NanoBiT luciferase assay relative to control; format: cell-based
[8] = target: von Hippel-Lindau disease tumor suppressor/Dual specificity tyrosine-phosphorylation-regulated kinase 1A (Homo sapiens, UniProt P40337+Q13627); assay: Competitive binding affinity to VHL/DYRK1A (unknown origin) assessed as dissociation constant by competition binding assay; format: protein assay
[9] = target: T2, Protein cereblon/Dual specificity tyrosine-phosphorylation-regulated kinase 1A; assay: PROTAC activity at CRBN/HibiT-tagged DYRK1A in Flp-In-T-REx-293 cells assessed as induction of degradation of DYRK1A at 1 uM by measured after 24 hrs by NanoBiT luciferase assay; format: cell-based
[10] = target: T2, Protein cereblon/Dual specificity tyrosine-phosphorylation-regulated kinase 1A; assay: PROTAC activity at CRBN/HibiT-tagged DYRK1A in Flp-In-T-REx-293 cells assessed as induction of degradation of DYRK1A at 100 nM by measured after 24 hrs by NanoBiT luciferase assay; format: cell-based
[11] = target: T2, Protein cereblon/Dual specificity tyrosine-phosphorylation-regulated kinase 1A; assay: PROTAC activity at CRBN/DYRK1A in HEK293 cells expressing GFP-SF3B1 assessed as inhibition of SF3B1 phosphorylation at 10 to 100 nM measured for 24 hrs by Western blot analysis; format: cell-based; details: dose 10-100 nM
[12] = target: Homeodomain-interacting protein kinase 3 (Homo sapiens) (UniProt Q9H422); assay: Binding affinity to human wild type partial length HIPK3 (M153 to N562 residues) expressed in mammalian expression system at 1 uM by kinome scan assay relative to control
[13] = target: T3, Dual specificity tyrosine-phosphorylation-regulated kinase 1A (Homo sapiens, UniProt Q13627); assay: Binding affinity to human wild type partial length DYRK1A (H129 to S509 residues) expressed in mammalian expression system at 1 uM by kinome scan assay relative to control
[14] = target: Dual specificity protein kinase CLK1 (Homo sapiens) (UniProt P49759); assay: Binding affinity to human wild type full length CLK1 (M1 to I484 residues) expressed in Bacterial expression system at 1 uM by kinome scan assay relative to control
[15] = target: T4, Serine/threonine-protein kinase haspin (Homo sapiens) (UniProt Q8TF76); assay: Binding affinity to human wild type partial length Haspin (I452 to K798 residues) expressed in mammalian expression system at 1 uM by kinome scan assay relative to control
T4 sequence (whole entry): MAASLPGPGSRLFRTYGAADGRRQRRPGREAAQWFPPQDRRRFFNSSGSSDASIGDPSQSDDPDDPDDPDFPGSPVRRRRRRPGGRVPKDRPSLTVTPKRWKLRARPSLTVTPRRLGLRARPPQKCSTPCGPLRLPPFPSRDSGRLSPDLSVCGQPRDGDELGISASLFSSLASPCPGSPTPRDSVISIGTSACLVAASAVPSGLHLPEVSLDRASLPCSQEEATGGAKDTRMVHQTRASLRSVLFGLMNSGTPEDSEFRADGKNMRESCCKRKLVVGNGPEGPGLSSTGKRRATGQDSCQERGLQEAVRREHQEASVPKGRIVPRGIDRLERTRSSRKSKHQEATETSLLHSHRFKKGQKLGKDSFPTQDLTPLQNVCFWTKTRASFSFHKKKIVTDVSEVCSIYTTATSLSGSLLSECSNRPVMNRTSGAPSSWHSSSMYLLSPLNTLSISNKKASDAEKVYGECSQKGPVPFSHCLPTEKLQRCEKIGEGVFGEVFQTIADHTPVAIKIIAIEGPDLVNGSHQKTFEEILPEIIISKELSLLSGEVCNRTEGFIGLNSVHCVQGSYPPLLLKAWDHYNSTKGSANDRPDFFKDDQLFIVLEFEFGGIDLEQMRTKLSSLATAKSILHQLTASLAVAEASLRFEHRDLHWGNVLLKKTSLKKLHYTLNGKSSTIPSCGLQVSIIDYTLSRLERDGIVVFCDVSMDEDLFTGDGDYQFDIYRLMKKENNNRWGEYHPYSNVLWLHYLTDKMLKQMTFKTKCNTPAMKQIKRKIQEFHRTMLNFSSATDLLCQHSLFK

[16] = target: Casein kinase I isoform epsilon (Homo sapiens) (UniProt P49674); assay: Binding affinity to human wild type full length CSNK1E (M1 to K416 residues) expressed in Bacterial expression system at 1 uM by kinome scan assay relative to control
[17] = target: Homeodomain-interacting protein kinase 2 (Homo sapiens) (UniProt Q9H2X6); assay: Binding affinity to human wild type partial length HIPK2 (M153 to S564 residues) expressed in mammalian expression system at 1 uM by kinome scan assay relative to control
[18] = target: Homeodomain-interacting protein kinase 3 (Homo sapiens) (UniProt Q9H422); assay: Binding affinity to human wild type full length HIPK3 (M1 to L344 residues) expressed in mammalian expression system at 1 uM by kinome scan assay relative to control
[19] = target: T3, Dual specificity tyrosine-phosphorylation-regulated kinase 1A; assay: Binding affinity to DYRK1A (unknown origin) assessed as dissociation constant
[20] = target: T2, Protein cereblon/Dual specificity tyrosine-phosphorylation-regulated kinase 1A; assay: PROTAC activity at CRBN/HibiT-tagged DYRK1A in Flp-In-T-REx-293 cells assessed as induction of degradation of DYRK1A by measuring maximum efficacy at 0.3 uM measured after 24 hrs by NanoBiT luciferase assay relative to control; format: cell-based
[21] = target: T1, Protein cereblon/Dual specificity tyrosine-phosphorylation-regulated kinase 1B (Homo sapiens); assay: PROTAC activity at CRBN/HibiT-tagged DYRK1B in Flp-In-T-REx-293 cells assessed as induction of degradation of DYRK1B by measuring maximum efficacy at 0.3 uM measured after 24 hrs by NanoBiT luciferase assay relative to control; format: cell-based
[22] = target: Protein cereblon/DNA damage-binding protein 1 (Homo sapiens, UniProt Q96SW2); assay: Displacement of Cy5-tagged thalidomide-like probe from recombinant CRBN/DDB1 (unknown origin) by competitive binding assay; format: protein assay

Row | Compound | Emax [1] | Kd [2] | Emax [3] | Kd [4] | also measured
1 | Cc1nc2ccc(-c3ccnc(N)c3)nc2n1-c1ccc(N2CCN(C(=O)CN3CCC(CC(=O)N4CCC(n5cc(CNc6cccc7c6C(=O)N(C6CCC(=O)NC6=O)C7=O)cn5)CC4)CC3)CC2)c(F)c1 (stereo not drawn) | 65% | 0.64 nM | 78% | – | –
2 | Cc1nc2ccc(-c3ccnc(N)c3)nc2n1-c1ccc(N2CCN(C(=O)CCCN3CCC(n4cc(CNc5cccc6c5C(=O)N(C5CCC(=O)NC5=O)C6=O)cn4)CC3)CC2)c(F)c1 (stereo not drawn) | 63% | 2.8 nM | 79% | 5.1 nM | –
3 | Cc1ncsc1-c1ccc(CNC(=O)[C@@H]2C[C@@H](O)CN2C(=O)[C@@H](NC(=O)CCOCCN2CCN(c3ccc(-n4c(C)nc5ccc(-c6ccnc(N)c6)nc54)cc3F)CC2)C(C)(C)C)cc1 | – | – | – | – | Emax [5]: 11%; Kd [6]: 5.5 nM; Emax [7]: 0%; Kd [8]: 3.4 nM
4 | Cc1ncsc1-c1ccc(CNC(=O)[C@@H]2C[C@@H](O)CN2C(=O)[C@@H](NC(=O)CCOCCOCCOCCN2CCN(c3ccc(-n4c(C)nc5ccc(-c6ccnc(N)c6)nc54)cc3F)CC2)C(C)(C)C)cc1 | – | – | – | – | Emax [5]: 0%; Kd [6]: 3.6 nM; Emax [7]: 0%; Kd [8]: 1.3 nM
5 | Cc1nc2ccc(-c3ccnc(N)c3)nc2n1-c1ccc(N2CCN(C(=O)CCCCN3CCN(Cc4ccc(CNc5cccc6c5CN(C5CCC(=O)NC5=O)C6=O)cc4)CC3)CC2)c(F)c1 (stereo not drawn) | 38% | 3.3 nM | 63% | 8.4 nM | –
6 | Cc1nc2ccc(-c3ccnc(N)c3)nc2n1-c1ccc(N2CCN(CCOCCOCCOCCC(=O)N3CCN(Cc4ccc(CNc5cccc6c5CN(C5CCC(=O)NC5=O)C6=O)cc4)CC3)CC2)c(F)c1 (stereo not drawn) | 0% | 5.6 nM | 0% | 16 nM | –
7 | Cc1nc2ccc(-c3ccnc(N)c3)nc2n1-c1ccc(N2CCN(CCOCCOCCOCCC(=O)N3CCN(c4ccc5c(c4)C(=O)N(C4CCC(=O)NC4=O)C5=O)CC3)CC2)c(F)c1 (stereo not drawn) | 0% | 5.9 nM | 9% | – | –
8 | Cc1nc2ccc(-c3ccnc(N)c3)nc2n1-c1ccc(N2CCN(CC#Cc3ccc(N4CCC(C(=O)N5CCC(n6cc(CNc7cccc8c7C(=O)N(C7CCC(=O)N(C)C7=O)C8=O)cn6)CC5)CC4)nc3)CC2)c(F)c1 (stereo not drawn) | – | – | – | – | Activity [9]: Active; Compound Showed Modest Degradation; Activity [10]: inactive; Activity [11]: Active; Compound Partially Suppress The Phosphorylation
9 | Cc1nc2ccc(-c3ccnc(N)c3)nc2n1-c1ccc(N2CCN(C)CC2)cc1F | – | – | – | – | Activity [12]: 0.7%; Activity [13]: 0%; Activity [14]: 0.5%; Activity [15]: 0.2%; Activity [16]: 0.3%; Activity [17]: 0.3%; Activity [18]: 0.7%; Kd [19]: 0.91 nM
10 | Cc1nc2ccc(-c3ccnc(N)c3)nc2n1-c1ccc(N2CCN(C(=O)CCCN3CCN(Cc4ccc(CNc5cccc6c5CN(C5CCC(=O)NC5=O)C6=O)cc4)CC3)CC2)c(F)c1 (stereo not drawn) | 54% | 1.7 nM | 75% | 5.2 nM | –
11 | Cc1nc2ccc(-c3ccnc(N)c3)nc2n1-c1ccc(N2CCN(CCOCCOCCNc3cccc4c3C(=O)N(C3CCC(=O)NC3=O)C4=O)CC2)c(F)c1 (stereo not drawn) | – | 1.4 nM | – | 3.5 nM | Emax [20]: 52%; Emax [21]: 25%
12 | Cc1nc2ccc(-c3ccnc(N)c3)nc2n1-c1ccc(N2CCN(CCOCCOCCOCCNc3cccc4c3C(=O)N(C3CCC(=O)NC3=O)C4=O)CC2)c(F)c1 (stereo not drawn) | – | 2.3 nM | – | 3.4 nM | Emax [20]: 60%; Emax [21]: 28%
13 | O=C1CCC(N2C(=O)c3cccc(NCc4cnn(C5CCN(C(=O)C6CCN(c7ccccn7)CC6)CC5)c4)c3C2=O)C(=O)N1 (stereo not drawn) | – | – | – | – | IC50 [22]: 13300 nM
14 | Cc1nc2ccc(-c3ccnc(N)c3)nc2n1-c1ccc(N2CCN(CCOCCOCCOCCC(=O)NC3CN(c4ccc5c(c4)C(=O)N(C4CCC(=O)NC4=O)C5=O)C3)CC2)c(F)c1 (stereo not drawn) | 0% | 3.2 nM | 27% | – | –
15 | Cc1nc2ccc(-c3ccnc(N)c3)nc2n1-c1ccc(N2CCN(CCOCCNc3cccc4c3C(=O)N(C3CCC(=O)NC3=O)C4=O)CC2)c(F)c1 (stereo not drawn) | – | 1.4 nM | – | 2.4 nM | Emax [20]: 40%; Emax [21]: 0%
16 | Cc1nc2ccc(-c3ccnc(N)c3)nc2n1-c1ccc(N2CCN(CCOCCOCCOCCOCCNc3cc4c(cc3F)C(=O)N(C3CCC(=O)NC3=O)C4=O)CC2)c(F)c1 (stereo not drawn) | 58% | 13 nM | 80% | 43 nM | –
17 | Cc1nc2ccc(-c3ccnc(N)c3)nc2n1-c1ccc(N2CCN(C(=O)CCN3CCN(Cc4ccc(CNc5cccc6c5CN(C5CCC(=O)NC5=O)C6=O)cc4)CC3)CC2)c(F)c1 (stereo not drawn) | 14% | 20 nM | 24% | 47 nM | –
18 | Cc1ncsc1-c1ccc(CNC(=O)[C@@H]2C[C@@H](O)CN2C(=O)[C@@H](NC(=O)CCOCCOCCOCCOCCN2CCN(c3ccc(-n4c(C)nc5ccc(-c6ccnc(N)c6)nc54)cc3F)CC2)C(C)(C)C)cc1 | – | – | – | – | Emax [5]: 0%; Kd [6]: 6.6 nM; Emax [7]: 0%; Kd [8]: 1.4 nM
19 | Cc1ncsc1-c1ccc(CNC(=O)[C@@H]2C[C@@H](O)CN2C(=O)[C@@H](NC(=O)CCOCCOCCN2CCN(c3ccc(-n4c(C)nc5ccc(-c6ccnc(N)c6)nc54)cc3F)CC2)C(C)(C)C)cc1 | – | – | – | – | Emax [5]: 5%; Kd [6]: 6.9 nM; Emax [7]: 2%; Kd [8]: 2.2 nM

— ChEMBL document CHEMBL6120970, “Discovery and Functional Characterization of a Potent, Selective, and Metabolically Stable PROTAC of the Protein Kinases DYRK1A and DYRK1B” (J Med Chem, 2024)
